Test results from PubChem BioAssay (NCI).
Where “and” joins values, the source holds several entries; their conditions need not be identical. Equal entries are not always repeated.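 Briefly, cells in 96-well plates were exposed to five compound concentrations for 48 h, and endpoints were estimated by linear interpolation. At the GI50, growth is halved. TGI is the concentration that stops growth completely.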

Tests used:
Assay in all cases: DTP human tumour cell line panel, 48 h
BT-549 breast = tested on: BT-549 breast
OVCAR-3 ovarian = tested on: OVCAR-3 ovarian
T-47D breast = tested on: T-47D breast
KM12 colon = tested on: KM12 colon
HS 578T breast = tested on: HS 578T breast
SF-539 CNS = tested on: SF-539 CNS
MALME-3M melanoma = tested on: MALME-3M melanoma
NCI-H522 lung = tested on: NCI-H522 lung
SF-268 CNS = tested on: SF-268 CNS
MDA-MB-435 = tested on: MDA-MB-435
SK-MEL-2 melanoma = tested on: SK-MEL-2 melanoma
786-0 renal = tested on: 786-0 renal
MDA-MB-231 breast = tested on: MDA-MB-231 breast
MCF7 breast = tested on: MCF7 breast
CCRF-CEM leukemia = tested on: CCRF-CEM leukemia
UO-31 renal = tested on: UO-31 renal
HOP-92 NSCLC = tested on: HOP-92 NSCLC
SN12C renal = tested on: SN12C renal

Structure (SMILES) | TGI (BT-549 breast) [µM] | TGI (OVCAR-3 ovarian) [µM] | TGI (T-47D breast) [µM] | TGI (KM12 colon) [µM] | TGI (HS 578T breast) [µM] | TGI (SF-539 CNS) [µM] | TGI (MALME-3M melanoma) [µM] | TGI (NCI-H522 lung) [µM] | TGI (SF-268 CNS) [µM] | TGI (MDA-MB-435) [µM] | TGI (SK-MEL-2 melanoma) [µM] | TGI (786-0 renal) [µM] | TGI (MDA-MB-231 breast) [µM] | TGI (MCF7 breast) [µM] | TGI (CCRF-CEM leukemia) [µM] | TGI (UO-31 renal) [µM] | TGI (HOP-92 NSCLC) [µM] | TGI (SN12C renal) [µM] | GI50 (MDA-MB-231 breast) | GI50 (HOP-92 NSCLC)
CC(C)[Si]1(C(C)C)OCC2OC(n3c(C(=O)c4ccccc4)cc(=O)[nH]c3=O)CC2O[Si](C(C)C)(C(C)C)O1 (centres undefined) | 16.5 | 5.09 | 16 | 8.51 | 5.5 | 8.6 | 13.1 | 3.55 | 8.26 | 10.4 | 10.6 | 9.87 | 5.67 | 8.14 | 5.12 | 6.98 | 7.14 | 5.5 | – | –
COC1CC(C)([N+](=O)[O-])C(O)C(C)O1 (centres undefined) | > 100 | > 100 | > 100 | > 100 | > 100 | > 100 | > 100 | > 100 | > 100 | > 100 | > 100 | > 100 | > 100 | > 100 | > 100 | > 100 | > 100 | > 100 | – | –
COc1cc(C(c2cccc3ccccc23)N2C(=O)CCC2C(=O)O)cc(OC)c1OC (centres undefined) | > 100 | > 100 | > 100 | > 100 | > 100 | > 100 | > 100 | > 100 | > 100 | > 100 | > 100 | > 100 | > 100 | > 100 | > 100 | > 100 | > 100 | > 100 | – | –
O/C(=C\c1nc2ccccc2nc1/C=C(\O)c1ccc(F)cc1)c1ccc(F)cc1 | > 100 | > 100 | > 100 | > 100 | > 100 | > 100 | > 100 | > 100 | > 100 | > 100 | > 100 | > 100 | > 100 | > 100 | > 100 | > 100 | > 100 | > 100 | – | –
CC(=O)OCC1OC(n2c(N)c(C#N)c(C)c(C#N)c2=S)C(OC(C)=O)C(OC(C)=O)C1OC(C)=O (centres undefined) | > 100 | > 100 | > 100 | > 100 | > 100 | > 100 | > 100 | > 100 | > 100 | > 100 | > 100 | > 100 | > 100 | > 100 | > 100 | > 100 | > 100 | > 100 | 40 µM and > 100 µM | 43.8 µM and > 100 µM
Cc1cc(S(=O)(=O)Nc2n[nH]c(Nc3ccc4ccccc4c3)n2)c(S)cc1Cl | > 100 | 51.7 | > 100 | 95 | 69.9 | 35.1 | > 100 | 84.2 | > 100 | 84.2 | 73.7 | > 100 | > 100 | > 100 | > 100 | > 100 | > 100 | > 100 | – | –
O=[N+]([O-])c1ccc(C2=NOC(c3ccc(Cl)cc3)N2C23CC4CC(CC(C4)C2)C3)cc1 (centres undefined) | > 100 | > 100 | > 100 | > 100 | > 100 | > 100 | > 100 | > 100 | > 100 | > 100 | > 100 | > 100 | > 100 | > 100 | > 100 | > 100 | > 100 | > 100 | – | –
CCOC(=O)c1nc2ccccc2nc1Nc1ccc(OC)cc1 | 73.6 | 70.4 | > 100 | > 100 | > 100 | 52.1 | > 100 | > 100 | > 100 | > 100 | > 100 | > 100 | 51.3 | > 100 | > 100 | > 100 | 54.4 | 61.5 | – | –
CCN(CC)C(=S)SC1C(=O)NC(=O)NC1=O | > 100 | > 100 | > 100 | > 100 | > 100 | > 100 | > 100 | > 100 | > 100 | > 100 | > 100 | > 100 | > 100 | > 100 | > 100 | > 100 | > 100 | > 100 | – | –
COc1ccc(NC(=O)CC(=O)NNC(Sc2ccccc2)c2cc(N=Nc3ccc(Br)cc3)ccc2O)cc1 (centres undefined) | > 10 | > 10 | > 10 | > 10 | > 10 | > 10 | > 10 | > 10 | > 10 | > 10 | > 10 | > 10 | > 10 | > 10 | > 10 | > 10 | > 10 | > 10 | – | –
O=C(c1ccccc1)c1ccc2c(c1)nc1n2C(c2c(F)cccc2F)SC1 (centres undefined) | > 100 | 96.2 | 43.5 | 66.7 | > 100 | > 100 | > 100 | > 100 | > 100 | > 100 | 62.4 | > 100 | > 100 | > 100 | – | 54.8 | > 100 | > 100 | – | –
